Measured values reported in US6509344B1, “Indenoisoquinolines as antineoplastic agents” (The United States of America as represented by the …, priority 1998, dated 2003).
Where two headings read alike, the source gives them in different places.

Columns and labels:
[1] = test system: HOP-62; experiment: NCI human cancer cell line screen (COMPARE screening), Lung HOP-62; assay type: cell-based
Excerpt: (§1) Considering the diversity of cancer in terms of cell type, morphology, growth rate and other cellular characteristics, the U.S. National Cancer Institute (NCI) has developed a “disease-oriented” approach to anticancer activity screening (M. R. Boyd, in “Principle of Practice of Oncology” […]. Rosenberg (Eds.) Vol. 3, PPO Update, No. 10, 1989). This in vitro prescreening system is based on the measurement of anticancer cytotoxicity against human cancer cell line panels consisting of approximately 60 cell lines of major human cancers (including leukemia and slower growing tumor cells such as lung, colon, breast, skin, kidney, etc.) and is referred hereinafter as “COMPARE” screening. An important advantage of the new in vitro screening panels is the opportunity to facilitate identification of compounds that are selectively more cytotoxic to cells of certain types of cancers, thus increasing the ability to select compounds for further study with respect to specific diseases. The indenoisoquinolines were examined for antiproliferative activity against the human cancer cell lines in the National Cancer Institute screen (COMPARE screening), in which the activity of each compound was evaluated with approximately […] different cancer cell lines of diverse tumor origins.

[2] = test system: HCT-116; experiment: NCI human cancer cell line screen (COMPARE screening), Colon HCT-116; assay type: cell-based
Excerpt: as §1

[3] = test system: UACC-62; experiment: NCI human cancer cell line screen (COMPARE screening), Melanoma UACC-62; assay type: cell-based
Excerpt: as §1

[4] = test system: OVCAR-3; experiment: NCI human cancer cell line screen (COMPARE screening), Ovarian OVCAR-3; assay type: cell-based
Excerpt: as §1

[5] = test system: DU-145; experiment: NCI human cancer cell line screen (COMPARE screening), Prostate DU-145; assay type: cell-based
Excerpt: as §1

[6] = test system: MDA-MB-435; experiment: NCI human cancer cell line screen (COMPARE screening), Breast MDA-MB-435; assay type: cell-based
Excerpt: as §1

[7] = test system: approximately 55 different cancer cell lines of diverse tumor origins; experiment: NCI screen mean graph midpoint over all cell lines tested; assay type: cell-based, human; conditions: for IC50: average GI50 for all cell lines tested (approximately 55), values outside test range taken as 10^-8 or 10^-4 molar, read-out: MGM (mean graph midpoint)
Excerpt: as §1

[8] = molecular target: T1, topoisomerase I (Homo sapiens, UniProt P11387); experiment: Topoisomerase I-mediated DNA cleavage assay (3'-end-labeled 161 bp pBluescript SK(-) fragment); assay type: biochemical; conditions: relative to the activity of 1 μM camptothecin
T1 sequence (P11387 1-765): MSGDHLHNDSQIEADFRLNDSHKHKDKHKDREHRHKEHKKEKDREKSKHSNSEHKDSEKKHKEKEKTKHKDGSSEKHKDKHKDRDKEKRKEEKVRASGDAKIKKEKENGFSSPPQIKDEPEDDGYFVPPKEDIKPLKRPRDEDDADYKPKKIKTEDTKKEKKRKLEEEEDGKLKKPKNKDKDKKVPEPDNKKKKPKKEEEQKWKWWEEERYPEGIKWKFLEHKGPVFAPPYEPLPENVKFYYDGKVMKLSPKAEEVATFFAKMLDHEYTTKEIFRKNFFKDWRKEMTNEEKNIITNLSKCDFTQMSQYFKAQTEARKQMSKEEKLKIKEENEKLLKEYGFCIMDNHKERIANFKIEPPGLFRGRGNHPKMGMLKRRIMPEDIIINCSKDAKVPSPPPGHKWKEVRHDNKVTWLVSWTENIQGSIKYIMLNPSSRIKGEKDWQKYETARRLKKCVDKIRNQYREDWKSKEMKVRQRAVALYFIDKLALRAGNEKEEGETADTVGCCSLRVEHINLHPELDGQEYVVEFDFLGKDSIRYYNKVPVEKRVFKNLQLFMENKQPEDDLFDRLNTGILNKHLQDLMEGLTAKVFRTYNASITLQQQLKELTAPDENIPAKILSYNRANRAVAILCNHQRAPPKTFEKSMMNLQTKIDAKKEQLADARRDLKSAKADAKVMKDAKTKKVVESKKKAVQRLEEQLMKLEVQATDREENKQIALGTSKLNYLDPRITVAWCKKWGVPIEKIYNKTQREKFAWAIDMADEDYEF
Method: Topoisomerase I-Mediated DNA Cleavage Reactions Using 3′-End-labeled 161 BP Plasmid DNA
The 161 bp fragment from pBluescript SK(−) phagemid DNA (Stratagene, La Jolla, Calif.) was cleaved with the restriction endonuclease Pvu II and Hind III (New England Biolabs, Beverly, Mass.) in supplied NE buffer 2 (10 μL reactions) for 1 h at 37° C., separated by electrophoresis in a 1% agarose gel made in 1×TBE buffer. The 161 bp fragment was eluted from the gel slice (centrilutor by Amicon) and concentrated in a centricon 50 centrifugal concentrator (Amicon, Beverly, Mass.). Approximately 200 ng of the fragment was 3′-end-labeled at the Hind III site by fill-in reaction with [alpha-^32P]-dCTP and 0.5 mM dATP, dGTP, and dTTP, in React 2 buffer (50 mM Tris-HCl, pH 8.0, […], 50 mM NaCl) with 0.5 units of DNA polymerase I (Klenow fragment). Labeling reactions were followed by phenol-chloroform extraction and ethanol precipitation. The resulting 161 bp 3′-endlabeled DNA fragment was resuspended in water. Aliquots (approximately 50,000 dpm/reaction) were incubated with topoisomerase I at 30° C. for 15 min in the presence of the indicated drug. Reactions were terminated by adding 0.5% SDS. After ethanol precipitation, the samples were resuspended in loading buffer (80% formamide, 10 mM sodium hydroxide, 1 mM sodium EDTA, 0.1% xylene cyanol, and 0.1% bromophenol blue, pH 8.0), and separated in a denaturing gel (16% polyacrylamide, 7 M urea) run at 51° C. The gel was dried and visualized by using a Phosphoimager and ImageQuant software (Molecular Dynamics, Sunnyvale, Calif.).

[9] = test system: human topoisomerase II; experiment: Topoisomerase II-mediated DNA cleavage assay (5'-end-labeled human c-myc DNA); assay type: biochemical
[10] = test system: SF-539; experiment: NCI human cancer cell line screen (COMPARE screening), CNS SF-539; assay type: cell-based; conditions: Homo sapiens; SF-539; concentration causing 50% growth inhibition; read-out: Cytotoxicity (G150 in μM) CNS SF-539
Excerpt: as §1

[11] = test system: SN12C; experiment: NCI human cancer cell line screen (COMPARE screening), Renal SN12C; assay type: cell-based; conditions: Homo sapiens; SN12C; concentration causing 50% growth inhibition; read-out: Cytotoxicity (G150 in μM) Renal SN12C
Excerpt: as §1

[12] = Homo sapiens, HOP-62, concentration causing 50% growth inhibition, read-out: Cytotoxicity (G150 in μM) Lung HOP-62
[13] = Homo sapiens, HCT-116, concentration causing 50% growth inhibition, read-out: Cytotoxicity (G150 in μM) Colon HCT-116
[14] = Homo sapiens, UACC-62, concentration causing 50% growth inhibition, read-out: Cytotoxicity (G150 in μM) Melanoma UACC-62
[15] = Homo sapiens, OVCAR-3, concentration causing 50% growth inhibition, read-out: Cytotoxicity (G150 in μM) Ovarian OVCAR-3
[16] = Homo sapiens, DU-145, concentration causing 50% growth inhibition, read-out: Cytotoxicity (G150 in μM) Prostate DU-145
[17] = Homo sapiens, MDA-MB-435, concentration causing 50% growth inhibition, read-out: Cytotoxicity (G150 in μM) Breast MDA-MB-435

## CCN1C(=O)c2cc(OC)c(OC)cc2[C@H]2C(=O)c3cc4c(cc3[C@H]21)OCO4 (relative stereo) [Compound 21, cis-6-Ethyl-5,6,12,13-tetrahydro-2,3-dimethoxy-5,11-dioxo-8,9-(methylene-dioxy)-11H-indeno[1,2-c]isoquinoline]
[1]
  IC50: 0.29 µM
[2]
  IC50: 0.29 µM
[3]
  IC50: 0.18 µM
[4]
  IC50: 0.44 µM
[5]
  IC50: 0.42 µM
[6]
  IC50: 0.45 µM
[7]
  cytotoxicity (MGM) relative to lead compound 1: lower MGM than the lead compound 1
  IC50: 0.81 µM
[8]
  Top 1 Cleavage: ± (those compounds having less than 20% of the activity of 1 μM camptothecin)
[9]
  induction of topoisomerase II cleavage complexes: no effect

## C=CCN1C(=O)c2cc(OC)c(OC)cc2[C@H]2C(=O)c3cc4c(cc3[C@H]21)OCO4 (relative stereo) [Compound 22, cis-6-Allyl-5,6,12,13-tetrahydro-2,3-dimethoxy-5,11-dioxo-8,9-(methylenedioxy)-(11H)indeno[1,2-c]isoquinoline]
[1]
  IC50: 0.36 µM
[2]
  IC50: 0.34 µM
[3]
  IC50: 0.38 µM
[4]
  IC50: 1.7 µM
[5]
  IC50: 0.77 µM
[6]
  IC50: 1.4 µM
[7]
  cytotoxicity (MGM) relative to lead compound 1: lower MGM than the lead compound 1
  IC50: 0.98 µM
[8]
  Top 1 Cleavage: 0
[9]
  induction of topoisomerase II cleavage complexes: no effect

## O=C1c2ccccc2-c2oc(=O)c3ccccc3c21 [Compound 2, benz[d]indeno[1,2-b]pyran-5,11-dione]
[1]; [12]
  IC50: > 100 µM
[2]; [13]
  IC50: > 100 µM
[10]
  IC50: > 100 µM
[3]; [14]
  IC50: > 100 µM
[4]; [15]
  IC50: > 100 µM
[11]
  IC50: > 100 µM
[5]; [16]
  IC50: > 100 µM
[6]; [17]
  IC50: > 100 µM
[7]; Homo sapiens
  IC50: 85 µM
[8]
  Top 1 Cleavage: 0

## O=C1c2ccccc2-c2c1c1ccccc1c(=O)n2C1CC1 [Compound 5, 6-Cyclopropyl-5,6-dihydro-5,11-diketo-11H-indeno[1,2-c]isoquinoline]
[1]; [12]
  IC50: 61 µM
[2]; [13]
  IC50: > 100 µM
[10]
  IC50: > 100 µM
[3]; [14]
  IC50: 84 µM
[4]; [15]
  IC50: > 100 µM
[11]
  IC50: > 100 µM
[5]; [16]
  IC50: > 100 µM
[6]; [17]
  IC50: > 100 µM
[7]; Homo sapiens
  IC50: 98 µM
[8]
  Top 1 Cleavage: 0

## COC(=O)Cn1c2c(c3ccccc3c1=O)C(=O)c1ccccc1-2 [Compound 6, 5,6-Dihydro-5,11-diketo-6-(methoxycarbonylmethyl)-11H-indeno[1,2-c]isoquinoline]
[10]
  IC50: > 100 µM
[3]; [14]
  IC50: > 100 µM
[4]; [15]
  IC50: > 100 µM
[11]
  IC50: > 100 µM
[5]; [16]
  IC50: > 100 µM
[6]; [17]
  IC50: > 100 µM
[7]; Homo sapiens
  IC50: 81 µM
[8]
  Top 1 Cleavage: 0
